Laboratory results reported in US7070942B2, “Method of inducing or enhancing chondrogenesis with extracellular matrix containing GDF-5” (DePuy Spine, Inc., priority 1998, dated 2006).

Key:
FRC [1] = test: Chondrogenesis by monochromatic staining of FRC cultured in the presence of type I collagen and various growth factors; assay type: cell-based, rat; details: FRC in the presence of type I collagen
Procedure: The growth and differentiation factor-induced chondrogenesis is highly specific to GDF-5. It was shown that ECM-dependent chondrogenesis by GDF-5 is highly specific, by evaluating the ability of several mitogens and prototype differentiation factors under the following conditions. Chondrogenesis was assessed by monochromatic staining of FRC cultured in the presence of type I collagen and various growth factors.

[2] = test system: fetal rat calvarial cells (FRC's); test: Fetal rat calvarial cells plated on purified extracellular matrix proteins with GDF-5; chondrogenic nodule formation, alcian blue stain; assay type: cell-based; details: GDF-5 100 ng/ml
Procedure: To show in vitro application, fetal rat calvarial cells (FRC's) were plated on various purified extracellular matrix proteins in the presence of recombinant human GDF-5 (100 ng/ml) for 3 weeks and scored for differentiation at the level of morphology, overall proteoglycan synthesis and deposition, and aggrecan and type II collagen expression. […] Chondrogenic nodules stained heavily with alcian blue and were positive for type II collagen and aggrecan-expression, as judged by immunohistochemical and transcriptional analyses. Cells in monolayer that surround the nodules were negative for the chondrogenic markers.
Plastic plates were first coated with different ECM proteins including type I and II collagen, type IV collagen, or fibronectin. […] Plastic culture 12 well (Costar, Cambridge, Mass.) were coated with 0.01% (w/v) of the indicated extracellular matrix proteins for 2 hours at 37° C. After removal of nonadsorbant protein, fetal rat calvarial cells were plated at a density of 2×10^5 cells/well in DMEM containing 10% FBS. Culture plates were then maintained for 21 days in culture media supplemented with or without GDF-5 (100 ng/ml). Plates were then stained overnight with alcian blue stain (0.5% w/v in 3% acetic acid), washed and photographed. For quantitation of alcian blue, cells were solubilized in 8M urea, and the amount of stain was quantitated using spectrophotometer (Molecular Devices, Sunnyvale, Calif.).

FRC cells [3] = test: Semiquantitative PCR of aggrecan, type II collagen and type I collagen mRNA in FRC culture treated with GDF-5 in the presence of type I collagen; assay type: cell-based, rat; details: FRC with GDF-5 in the presence of type I collagen
Text: To examine correlation of changes in cellular morphology with the process of chondrogenesis, total cellular RNA and protein were isolated from FRC culture treated with GDF-5 in the presence of type I collagen. Total cellular RNA isolated from FRC cells was subjected to a semiquantitative PCR analysis using specific primers designed to amplify aggrecan, type II collagen or type I collagen. […] Under these conditions, type I collagen mRNA expression decreased by about 20%. The expression of aggrecan and type II collagen was confirmed using slot blot analysis.

FRC cells [4] = test: Immunoblot of total cell lysates for type II collagen or aggrecan; assay type: cell-based, rat
Procedure: Total cell lysates (100 ug) were electrophoretically separated on a 8% or 5% SDSPAGE, transferred to immobilon-P and immunoblotted using antibody specific to type II collagen or aggrecan.

FRC [5] = test: FRC seeded in porous type I collagen matrix, RT-PCR and histology with alcian or Toludine blue staining; assay type: cell-based, rat; details: GDF-5 100 ng/ml, 3 weeks
Procedure: A porous matrix fabricated from type I collagen was seeded by, 1×10^5 cell per implant (2×3×3 mm). Cells embedded in matrices were then cultured for 3 weeks in culture supplemented with or without GDF-5 (100 ng/ml). Total RNA isolated from each implant were then subjected to RT-PCR. […] In parallel the implant material was subject to histological evaluation followed by alcian or Toludine blue staining. […] Under these conditions FRC cells were not able to proliferate and differentiate in the ECM in the absence of GDF-5 as measured by histological evaluation total DNA, RNA or protein content.

FRC cells [6] = test: FRC in 3D collagen-based matrices of different porosity, with or without hyaluronic acid coating, semi-quantitative PCR; assay type: cell-based, rat; details: only in matrices coated with hyaluronic acid with the highest porosity (about 300 micron); GDF-5 100 ng/ml, 3 weeks
Procedure: Each matrix composite was either coated with or without hyaluronic acid, a major component of cartilage. The implants were then seeded with 1×10^5 cells per implant and cultured for 3 weeks in the presence of GDF-5 (100 ng/ml). Total RNA extracted from each implant were then subjected to semi-quantitative PCR analysis. […] Together these findings indicate that GDP-5 chondrogenesis activity is fully and potently synergized by a matrix which contain 1) high pore size (about 100-300 micron); and 2) is composed of type I collagen which is coated with hyaluronic acid.

Sprague-Dawley rats = test: Rat soft tissue implants, intramuscular, alkaline phosphatase activity and histology at 14 days; assay type: in vivo
Text: In vivo activity of rhGDF-5 on collagen-based matrices.
In Vivo Assays, Rat Soft Tissue Implants: Matrix/growth factor combinations were implanted either subcutaneously in the thoracic region or intramuscularly in posterior tibial muscle pouches created by blunt dissection in 8 week old male Sprague-Dawley rats. At 14 days post-surgery, implants were harvested, weighed and processed for routine histology (fixed in 10% formalin, paraffin-embedded, sectioned to 6 μm, and hematoxylin and eosin stained). Alternatively, implants were extracted and assayed for alkaline phosphatase activity.

rat limb bud cells = details: cited from earlier work
MC3T3-E1 cells = details: well differentiated osteoblastic MC3T3-E1 cells; cited from earlier work
[7] = test system: rat osteoprogenitor cells ROB-C26; details: cited from earlier work
[8] = test system: heterodimer of receptor for BMPs; details: cited from earlier work
[9] = test system: GDF-5/type I collagen-induced chondrogenesis; test: Inhibitors of intracellular signaling mediators on GDF-5/type I collagen-induced chondrogenesis; assay type: cell-based; details: GDF-5 in the context of type I collagen
Text: The molecular signaling mechanism by which GDF-5 induces chondrogenesis in the context of type I collagen was also examined using well-characterized inhibitors of intracellular signaling mediators. […] The known inhibitory effect of rapamycin on activation of p70S6 kinase indicate that GDF-5/type I collagen-induced chondrogenesis is mediated through p70S6 kinase activation.

IGF-I: growth factor
stimulation of chondrogenesis (FRC [1]): failed to stimulate chondrogenesis

IGF-II: growth factor
stimulation of chondrogenesis (FRC [1]): failed to stimulate chondrogenesis

GDF-5: growth and differentiation factor-5, a member of the bone morphogenetic protein (BMP) family that is involved in joint development
formation of chondrogenic cell aggregate binding alcian blue stain ([2]; ECM-coated plastic plates (0.01% w/v), 21 days): stimulated the formation of chondrogenic cell aggregate
formation of characteristic nodules ([2]; FRC cultured in the presence of vehicle alone, type IV collagen or fibronectin, 21 days): fails to stimulate the formation of characteristic nodules
chondrogenesis ([2]; FRC's plated on fibronectin, type IV collagen or tissue culture plastic, 3 weeks): failed to stimulate chondrogenesis
chondrogenic nodule formation ([2]; FRC's plated on type I or type II collagen, 3 weeks): stimulated chondrogenic nodule formation
decrease of type I collagen mRNA expression (FRC cells [3]): about 20%
increase of aggrecan mRNA expression (FRC cells [3]): ~3
increase of type II collagen mRNA expression (FRC cells [3]): around 2
expression of type II collagen or aggrecan (FRC cells [4]; FRC cells cultured in the absence of type I collagen): fails to stimulate expression
steady state level of type II collagen and aggrecan (FRC cells [4]; FRC cultured with type I collagen): significant increase
expression of aggrecan and type II collagen (RT-PCR) (FRC [5]; 1x10^5 cells per implant): induced expression
cellular morphology of FRC (alcian blue staining, cell shape) (FRC [5]; histology): marked changes in cellular morphology
expression level of type II collagen and aggrecan (FRC cells [6]): significant increase
alkaline phosphatase activity and chondrogenesis (Sprague-Dawley rats; CN/HA matrices loaded with 1, 5 and 50 μg, intramuscular in rats): dose-depended increase
chondrogenesis and full terminal differentiation (Sprague-Dawley rats; mineralized collagen combined with rhGDF-5, intramuscular in rats): very little evidence
mesenchymal aggregation and chondrogenesis (rat limb bud cells): stimulates
alkaline phosphatase activity (MC3T3-E1 cells): fails to stimulate
alkaline phosphatase activity [7]: stimulates
binding to heterodimer of receptor for BMPs [8]: binds

CCCC(=O)Nc1ncnc2c1ncn2[C@@H]1O[C@@H]2COP(=O)(O)O[C@H]2[C@H]1OC(=O)CCC [dibutyryl-cAMP]
inhibition of ligand-dependent chondrogenesis [9]: not

[Na+].[Na+].[Na+].[O]=[V]([O-])([O-])[O-] [Na3VO4]
inhibition of ligand-dependent chondrogenesis [9]: not

CNc1ccc2oc(C[C@H]3O[C@@]4(CC[C@H]3C)O[C@H]([C@H](C)C(=O)c3ccc[nH]3)[C@H](C)C[C@H]4C)nc2c1C(=O)O [A23187]
inhibition of ligand-dependent chondrogenesis [9]: completely inhibited

O=C(O)CN(CCOCCOCCN(CC(=O)O)CC(=O)O)CC(=O)O [EGTA]
inhibition of ligand-dependent chondrogenesis [9]: not

bFGF: growth factor
stimulation of chondrogenesis (FRC [1]): failed to stimulate chondrogenesis

TGFb
stimulation of chondrogenesis (FRC [1]): completely failed to stimulate chondrogenesis
